pKi: −log10 of the molar value. Non-standard residues stand in square brackets, D forms with d. Residues, ends and D or L forms follow the SMILES beside them. *: point of attachment. dPhe(4-Cl) = N[C@H](Cc1ccc(Cl)cc1)C(=O)O; d2Nal = N[C@H](Cc1ccc2ccccc2c1)C(=O)O; Nle = CCCC[C@H](N)C(=O)O; Ahp = NCCCCCCC(=O)O; Bn = c1ccc(C*)cc1
How the values were obtained:
MC1-R = MC1-R (Mus musculus, UniProt Q01727); test: Competitive inhibition binding assay, 125I-NDP-alpha-MSH, B-16 mouse melanoma cell membranes; conditions: for percent inhibition of 125I-NDP-alpha-MSH binding, MC1-R (B-16): B-16 mouse melanoma cell membranes, 0.4 nM 125I-NDP-alpha-MSH, mean of triplicate, peptide concentration not given; for pKi: B-16 cells, read-out: Ki MC-1 B-16; for MC1-R (B-16) inhibition of 125I-NDP-alpha-MSH binding: peptide conc. 1 μM
hMC5-R = target: T1, hMC5-R (Homo sapiens, UniProt P33032); test: Competitive inhibition binding assay, 125I-NDP-alpha-MSH, hMC5-R membranes; conditions: for percent inhibition of 125I-NDP-alpha-MSH binding, MC5-R: hMC5-R membranes, 0.4 nM 125I-NDP-alpha-MSH, mean of triplicate, peptide concentration not given; for pKi: membranes, read-out: Ki MC-5 Mem
T1 construct: expressed in transfected cells

MC4-R [1] = target: T2, MC4-R (Homo sapiens, UniProt P32245); test: Competitive inhibition binding assay, 125I-NDP-alpha-MSH, hMC4-R membranes; parameters: expressed in transfected cells; conditions: for percent inhibition of 125I-NDP-alpha-MSH binding, MC4-R: hMC4-R membranes, 0.4 nM 125I-NDP-alpha-MSH, mean of triplicate, peptide concentration not given; for pKi: membranes, read-out: Ki MC-4 Mem
hMC3-R = target: T3, hMC3-R (Homo sapiens, UniProt P41968); test: Competitive inhibition binding assay, 125I-NDP-alpha-MSH, hMC3-R membranes; conditions: for percent inhibition of 125I-NDP-alpha-MSH binding, MC3-R: hMC3-R membranes, 0.4 nM 125I-NDP-alpha-MSH, mean of triplicate, peptide concentration not given; for pKi: membranes, read-out: Ki MC-3 Mem
T3 construct: expressed in transfected cells

MC4-R [2] = target: T2, MC4-R; test: Functional evaluation: intracellular cAMP accumulation in HEK-293 cells expressing MC4-R (agonist/antagonist status); format: cell-based; parameters: expressed in transfected cells; host or cells: HEK-293; conditions: with or without alpha-MSH, 1 hour at 37° C
Procedure: The Ki (nM) of certain peptides were determined, as was the agonist/antagonist status with respect to MC4-R. Functional evaluation of peptides at MC4-R was performed by measuring the accumulation of intracellular cAMP in HEK-293 cells expressing MC4-R. Antagonistic activity was determined by measuring the inhibition of α-MSH-induced cAMP levels following exposure to the compounds. Cells, suspended in Earle's Balanced Salt Solution containing 10 mM HEPES, pH 7.5, 5 mM MgCl2, 1 mM glutamine, 0.1% albumin and 0.6 mM 3-isobutyl-1-methyl-xanthine, a phosphodiesterase inhibitor, were plated in 96 well plates at a density of 0.5×10^5 cells per well. Cells were incubated with the test peptides in the presence or absence of α-MSH for 1 hour at 37° C. cAMP levels were measured by EIA (Amersham) in the cell lysates. Data analysis and EC50 values were determined using nonlinear regression analysis with Prism Graph-Pad software.

T1 sequence (P33032 whole entry): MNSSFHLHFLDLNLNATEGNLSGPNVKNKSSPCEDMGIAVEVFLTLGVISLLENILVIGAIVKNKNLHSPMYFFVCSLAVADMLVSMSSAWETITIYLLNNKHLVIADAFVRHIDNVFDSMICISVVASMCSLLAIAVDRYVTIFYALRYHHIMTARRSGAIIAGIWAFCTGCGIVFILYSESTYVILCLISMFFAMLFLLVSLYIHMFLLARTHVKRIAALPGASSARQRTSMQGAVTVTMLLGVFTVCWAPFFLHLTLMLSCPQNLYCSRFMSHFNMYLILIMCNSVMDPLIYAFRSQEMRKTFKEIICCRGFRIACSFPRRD
Chain of MC1-R (Q01727 whole entry): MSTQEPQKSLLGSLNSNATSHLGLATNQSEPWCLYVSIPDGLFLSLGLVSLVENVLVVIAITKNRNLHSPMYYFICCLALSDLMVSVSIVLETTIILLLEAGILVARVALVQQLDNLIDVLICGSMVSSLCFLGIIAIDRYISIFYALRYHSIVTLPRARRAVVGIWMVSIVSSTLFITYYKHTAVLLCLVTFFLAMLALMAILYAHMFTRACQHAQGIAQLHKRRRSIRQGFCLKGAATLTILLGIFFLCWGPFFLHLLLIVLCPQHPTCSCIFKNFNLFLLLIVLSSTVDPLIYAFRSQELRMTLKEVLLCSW
T3 sequence (P41968 whole entry): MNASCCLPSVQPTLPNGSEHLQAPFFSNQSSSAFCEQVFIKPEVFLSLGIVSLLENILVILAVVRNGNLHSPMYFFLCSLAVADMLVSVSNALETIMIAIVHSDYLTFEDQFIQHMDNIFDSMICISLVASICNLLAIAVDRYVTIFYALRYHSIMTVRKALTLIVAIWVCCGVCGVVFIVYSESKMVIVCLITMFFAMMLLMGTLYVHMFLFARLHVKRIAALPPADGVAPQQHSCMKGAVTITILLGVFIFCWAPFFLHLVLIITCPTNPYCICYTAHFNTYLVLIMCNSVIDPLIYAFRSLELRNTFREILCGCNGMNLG
T2 sequence (P32245 whole entry): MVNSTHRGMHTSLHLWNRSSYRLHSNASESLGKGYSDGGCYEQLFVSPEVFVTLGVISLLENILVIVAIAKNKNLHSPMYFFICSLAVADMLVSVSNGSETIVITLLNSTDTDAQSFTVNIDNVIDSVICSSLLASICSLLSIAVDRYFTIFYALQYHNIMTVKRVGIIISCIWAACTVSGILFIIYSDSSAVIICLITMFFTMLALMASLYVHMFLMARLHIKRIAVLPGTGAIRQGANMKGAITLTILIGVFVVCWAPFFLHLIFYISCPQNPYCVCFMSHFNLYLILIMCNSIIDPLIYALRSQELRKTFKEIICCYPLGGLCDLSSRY

| Molecule | percent inhibition of 125I-NDP-alpha-MSH binding, MC1-R (B-16) (MC1-R) | percent inhibition of 125I-NDP-alpha-MSH binding, MC5-R (hMC5-R) | percent inhibition of 125I-NDP-alpha-MSH binding, MC4-R (MC4-R [1]) | percent inhibition of 125I-NDP-alpha-MSH binding, MC3-R (hMC3-R) | also measured |
| --- | --- | --- | --- | --- | --- |
| 2′-naphthylacetyl-Ala-D-Phe(4-Cl)-Arg-Trp-NH2 | 45% |  |  |  |  |
| 2′-naphthylacetyl-D-Phe(4-Cl)-Arg-Trp-NH2 |  | 58% |  |  |  |
| 2′-naphthylacetyl-Inp-D-Phe(4-Cl)-Arg-Trp-NH2 |  |  | 58% |  |  |
| 2′-naphthylacetyl-Tle-D-Phe(4-Cl)-Arg-Trp-NH2 | 67% |  |  |  |  |
| 2′-naphthylacetyl-beta-Ala-D-Nal 2-Arg-Trp-NH2 |  |  |  | 58% |  |
| 3′,4′-Cl2phenylacetyl-Ala-D-Phe(4-Cl)-Arg-2′-(4″-methylphenyl)ethylamide |  | -6% |  |  |  |
| 3′,4′-Cl2phenylacetyl-Ala-D-Phe(4-Cl)-Lys-Trp-NH2 | 45% |  |  |  |  |
| 3′-CF3phenyl-acetyl-Ala-D-Phe(4-Cl)-Arg-Trp-NH2 |  |  |  | 101% |  |
| 3′-CF3phenylacetyl-Ala-D-Phe(4-Cl)-Lys-Trp-NH2 |  | 67% |  |  |  |
| 4′-biphenyl-acetyl-Ala-D-Phe(4-Cl)-Arg-Trp-NH2 | 0% | 37% | 88% | 54% |  |
| 4′-phenylbutylaminocarbonyl-D-Phe(4-Cl)-Arg-Trp-NH2 |  |  | 45% |  |  |
| 7′-amino-heptanoyl-Ala-D-Phe(4-Cl)-Arg-Trp-NH2 | 58% |  |  |  |  |
| 7′-amino-heptanoyl-Ser(Bzl)-D-Phe(4-Cl)-Arg-2′,4′-dichlorobenzylamide |  | -6% |  |  |  |
| 7′-amino-heptanoyl-Ser(Bzl)-D-Phe(4-Cl)-Arg-2′-(4″-methylphenyl)ethylamide |  |  |  | 67% |  |
| 7′-amino-heptanoyl-Ser(Bzl)-D-Phe(4-Cl)-Arg-4-phenyl-piperidine-4-carbonamide | 5% | 25% | 13% | 2% |  |
| 7′-amino-heptanoyl-Ser(Bzl)-D-Phe(4-Cl)-Arg-Histamide |  | -2% |  |  |  |
| 7′-amino-heptanoyl-Ser(Bzl)-D-Phe(4-Cl)-Arg-Tic-NH2 | 45% |  |  |  |  |
| 7′-amino-heptanoyl-Ser(Bzl)-D-Phe(4-Cl)-Arg-Trp-Asp-OH |  |  | 67% |  |  |
| 7′-amino-heptanoyl-Ser(Bzl)-D-Phe(4-Cl)-Arg-Trp-OH |  |  | 67% |  |  |
| 7′-amino-heptanoyl-Ser(Bzl)-D-Phe(4-Cl)-alpha-(N-amidino-4′-piperidine)Gly-Trp-NH2 | 3% | 16% | 26% | 8% |  |
| N=C(N)NCCC[C@H](NC(=O)[C@@H](Cc1ccc2ccccc2c1)NC(=O)[C@H](COCc1ccccc1)NC(=O)CCCCCCN)C(=O)N[C@H](Cc1c[nH]c2ccccc12)C(N)=O [7′-amino-heptanoyl-Ser(Bzl)-D-Nal 2-Arg-D-Trp-NH2] (H-[Ahp]S(Bn)[d2Nal]R[dW]-NH2) | -8% | 82% | 100% | 86% | pKi (MC1-R): 5.89; pKi (hMC3-R): 7.15; pKi (hMC5-R): 7.05; pKi (MC4-R [1]): 8.22; HEK-293 (MC4-R) cells Classification (MC4-R [2]): Antagonist |
| N=C(N)NCCC[C@H](NC(=O)[C@@H](Cc1ccc2ccccc2c1)NC(=O)[C@H](COCc1ccccc1)NC(=O)CCCCCCN)C(=O)N[C@@H](Cc1c[nH]c2ccccc12)C(N)=O [7′-amino-heptanoyl-Ser(Bzl)-D-Nal 2-Arg-Trp-NH2] (H-[Ahp]S(Bn)[d2Nal]RW-NH2) | 4% | 82% | 99% | 93% | pKi (MC1-R): 5.73; pKi (hMC3-R): 7.30; pKi (hMC5-R): 6.99; pKi (MC4-R [1]): 8.40; HEK-293 (MC4-R) cells Classification (MC4-R [2]): Antagonist |
| C[C@H](NC(=O)[C@H](Cc1c[nH]c2ccccc12)NC(=O)[C@H](CCCNC(=N)N)NC(=O)[C@@H](Cc1ccc(Cl)cc1)NC(=O)[C@H](COCc1ccccc1)NC(=O)CCCCCCN)C(N)=O [7′-amino-heptanoyl-Ser(Bzl)-D-Phe(4-Cl)-Arg-Trp-Ala-NH2] (H-[Ahp]S(Bn)[dPhe(4-Cl)]RWA-NH2) |  | 79% | 100% | 93% | pKi (MC1-R): 6.85; pKi (hMC3-R): 7.43; pKi (hMC5-R): 6.95; pKi (MC4-R [1]): 8.70; HEK-293 (MC4-R) cells Classification (MC4-R [2]): Agonist |
| N=C(N)NCCC[C@H](NC(=O)[C@@H](Cc1ccc(Cl)cc1)NC(=O)[C@H](COCc1ccccc1)NC(=O)CCCCCCN)C(=O)N[C@@H](Cc1c[nH]c2ccccc12)C(=O)N[C@@H](CC(=O)O)C(N)=O [7′-amino-heptanoyl-Ser(Bzl)-D-Phe(4-Cl)-Arg-Trp-Asp-NH2] (H-[Ahp]S(Bn)[dPhe(4-Cl)]RWD-NH2) |  | 48% | 98% | 73% | pKi (MC1-R): 6.12; pKi (hMC3-R): 6.72; pKi (hMC5-R): 6.22; pKi (MC4-R [1]): 8.05; HEK-293 (MC4-R) cells Classification (MC4-R [2]): Agonist |
| N=C(N)NCCC[C@H](NC(=O)[C@@H](Cc1ccc(Cl)cc1)NC(=O)[C@H](COCc1ccccc1)NC(=O)CCCCCCN)C(=O)N[C@@H](Cc1c[nH]c2ccccc12)C(=O)N[C@@H](CC(=O)O)C(=O)N[C@@H](Cc1ccccc1)C(N)=O [7′-amino-heptanoyl-Ser(Bzl)-D-Phe(4-Cl)-Arg-Trp-Asp-Phe-NH2] (H-[Ahp]S(Bn)[dPhe(4-Cl)]RWDF-NH2) | 34% | 54% | 100% | 37% | pKi (MC1-R): 6.57; pKi (hMC3-R): 6.50; pKi (hMC5-R): 6.41; pKi (MC4-R [1]): 7.92; HEK-293 (MC4-R) cells Classification (MC4-R [2]): Agonist |
| Ac-[Nle]AH[dF]RCW-NH2 |  |  |  |  | MC1-R (B-16) inhibition of 125I-NDP-alpha-MSH binding (MC1-R): 101% |
| Ac-[Nle]AH[dF]RW-NH2 |  |  |  |  | MC1-R (B-16) inhibition of 125I-NDP-alpha-MSH binding (MC1-R): 101% |
| Ac-[Nle]AH[dF]RWC-NH2 |  |  |  |  | MC3-R inhibition of 125I-NDP-alpha-MSH binding (hMC3-R; peptide conc. 1 μM): 58% |
| Ph-(CH2)2NH-CO(CH2)2CO-D-Phe(4-Cl)-Arg-Trp-NH2 | 67% |  |  |  |  |

From US7417027B2, “Linear and cyclic melanocortin receptor-specific peptides” (Palatin Technologies, Inc., priority 2001, dated 2008)
